# In patent US20120129843A1, “PYRIDYL-THIAZOLYL INHIBITORS OF PRO-MATRIX METALLOPROTEINASE ACTIVATION” (priority 2010, published 2012):
# Key:
# [1] = system: rats with SCW-induced arthritis; experiment: Efficacy in rats with SCW-induced arthritis (ankle thickness, clinical score); assay type: in vivo, rat; details: for Clinical Scores (0-8), Day 18 (mean): Day 18, start of treatment; for Clinical Scores (0-8), Day 26 (mean): Day 18-26
# Excerpt: A polyarthritis can be induced in female Lewis rats following i.p. administration of streptococcal cell wall (SCW) proteoglycan-polysaccharides (PG-PS) (J Exp Med 1977; 146:1585-1602). The model has an acute phase (days 3-7) that is complement and neutrophil-dependent and that resolves. A chronic erosive phase begins at about day ten and is dependent on the development of specific T cell immunity to the PG-GS, which resists digestion and remains present in synovial macrophages for months. Like rheumatoid arthritis, SCW-induced arthritis is reduced by TNF inhibitors, and the dependence of SCW-induced arthritis on macrophages (Rheumatology; 2001; 40:978-987) and the strong association of rheumatoid arthritis severity with synovial-tissue macrophage counts (Ann Rheum Dis; 2005; 64:834-838) makes SCW-arthritis an attractive model for testing potential therapeutic agents. SCW PG-PS 10S (Beckton Dickinson Cat#210866) suspended in saline was vortexed for 30 seconds and sonicated for 3 min with a probe type sonicator prior to injection. Female Lewis (LEW/N) rats, 5-6 weeks of age (80-100 g) were injected (i.p.) with SCW PG-PS (15 μg of rhamnose/gram BW) in the lower left quadrant of the abdomen using a 1 mL syringe fitted with a 23-gauge needle. Control (disease-free) rats were treated in a similar manner with sterile saline. Control rats were sacrificed on day 5 and groups of SCW-injected rats were sacrificed on day 5 when acute inflammation was maximal or on day 18 when chronic inflammation was established.
# To induce arthritis, Female Lewis (LEW/N) rats, 5-6 weeks of age (80-100 g) were injected (i.p.) with SCW PG-PS as described above. Eighteen days later, arthritis was well established. Calipers were used to measure the width (anterior to posterior surface) of the left and right hind ankles of each rat. Each ankle was measured 3 times and averaged, and treatment groups were randomized based on ankle thickness (Table 6). Commencing on day 18, randomized groups of arthritic rats (n=5 rats/group) received vehicle or 5, 20, or 50 mg/kg Compound-α BID by oral gavage. Vehicle consisted of an aqueous mixture containing 2% (v:v) N-methylpyrrolidone, 5% (v:v) glycerine, and 20% (w:v) captisol. Treatment continued daily through the morning of day 26.
# By day 18 mean ankle thickness was increased an average of >4.4 mm compared to disease free rats. Rats treated with vehicle alone continued to gradually develop a more severe arthritis based on ankle thickness measurements over the eight-day treatment period (Table 6). […] By day 26, the disease associated increase in ankle thickness had been reduced 27, 37, and 46 percent by 5, 20, and 50 mg/kg Compound-α, respectively.
# Hind paw inflammation clinical scores were assigned based on swelling and erythema.
# [2] = target: T1, MMP9 in ankles of SCW-induced rats (Rattus norvegicus, UniProt P50282); experiment: Pro and active MMP9 in ankles of rats with SCW-induced arthritis by Western blot; assay type: in vivo; details: Day 26, four hours after AM dose, FIG. 3A lanes 4-9
# T1 construct: from tissue; host or cells: tibia-tarsus joints (ankles) of female Lewis rats
# Protocol: Hind-limbs were skinned, severed just above the tibia-tarsus joint and below the metatarsals, and the tibia-tarsus joints (ankles) were weighed, snap frozen and pulverized on dry ice using a hammer and anvil. The pulverized tissue was suspended in 3 volumes (w:v) of ice-cold homogenization buffer containing 50 mM Tris pH 7.5, 150 mM NaCl, 5 mM EDTA, 1% Triton X100, 0.05% Brij 30, 10% dimethylsulfoxide and Complete EDTA-free Protease Inhibitor Cocktail (Roche Diagnostics). The suspended tissue was homogenized sequentially with a Kinematica AG Polytron and a Dounce homogenizer. Homogenates were centrifuged at 16,000×g for 10 min at 4° C. and the soluble fractions were saved. Dimethylsulfoxide was removed from a portion of each soluble fraction using PD MiniTrap™ G-25 desalting columns (GE Healthcare). Homogenates (0.25 mL), free of DMSO, were diluted with an equal volume of binding buffer (i.e., homogenization buffer without dimethylsufoxide) and adjusted to contain 50 μL of a 50% slurry of gelatin-conjugated sepharose. […]
# To induce arthritis, Female Lewis (LEW/N) rats, 5-6 weeks of age (80-100 g) were injected (i.p.) with SCW PG-PS as described above. […] Each ankle was measured 3 times and averaged, and treatment groups were randomized based on ankle thickness (Table 6). […]
# T1 sequence (P50282 20-708): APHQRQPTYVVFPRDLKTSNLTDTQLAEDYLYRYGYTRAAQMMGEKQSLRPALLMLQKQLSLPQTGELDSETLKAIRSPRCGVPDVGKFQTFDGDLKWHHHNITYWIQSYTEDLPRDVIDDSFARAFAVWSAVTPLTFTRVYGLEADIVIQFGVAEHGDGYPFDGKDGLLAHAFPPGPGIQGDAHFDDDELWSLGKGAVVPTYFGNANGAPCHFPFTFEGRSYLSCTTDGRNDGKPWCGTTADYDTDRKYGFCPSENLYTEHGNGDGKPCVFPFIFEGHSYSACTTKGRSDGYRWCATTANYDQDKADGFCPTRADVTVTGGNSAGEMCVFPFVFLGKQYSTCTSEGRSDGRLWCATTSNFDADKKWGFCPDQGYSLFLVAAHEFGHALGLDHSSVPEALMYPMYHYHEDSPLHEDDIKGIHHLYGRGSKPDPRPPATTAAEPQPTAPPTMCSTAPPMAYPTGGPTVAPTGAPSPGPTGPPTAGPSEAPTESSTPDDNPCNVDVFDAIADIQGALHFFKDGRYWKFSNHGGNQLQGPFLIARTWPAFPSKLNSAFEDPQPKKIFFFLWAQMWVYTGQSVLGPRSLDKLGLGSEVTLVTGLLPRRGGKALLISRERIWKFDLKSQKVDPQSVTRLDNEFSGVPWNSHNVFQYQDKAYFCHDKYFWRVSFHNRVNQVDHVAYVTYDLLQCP
smiles,measurement,setting,value
"Cc1nc(C)c(-c2csc(Nc3cc(S(N)(=O)=O)ccc3OC(C)C)n2)s1 [Compound-α, 3-(2′,4′-Dimethyl-[4,5′]bithiazolyl-2-ylamino)-4-isopropoxy-benzenesulfonamide.HBr]","Clinical Scores (0-8), Day 18 (mean)",[1]; 5 mg/kg BID group,8.00
same,"Clinical Scores (0-8), Day 26 (mean)",[1]; 5 mg/kg BID,6.80
same,"Clinical Scores (0-8), Day 18 (mean)",[1]; 20 mg/kg BID group,8.00
same,"Clinical Scores (0-8), Day 26 (mean)",[1]; 20 mg/kg BID,5.20
same,"Clinical Scores (0-8), Day 18 (mean)",[1]; 50 mg/kg BID group,7.80
same,"Clinical Scores (0-8), Day 26 (mean)",[1]; 50 mg/kg BID,4.40
same,abundance of proMMP9 in ankles,[2],did not reduce the abundance of proMMP9
same,abundance of proMMP9 in ankles,[2]; listed as Compound α,did not reduce the abundance of proMMP-9
